# In patent publication US10488411B2, “Inflammasome activation in myelodysplastic syndromes” (H. LEE MOFFITT CANCER CENTER AND RESEARCH INSTITUTE, INC., priority 2015, dated 2019):
# Columns and labels:
# [1] = system: β-catenin; assay: β-catenin confocal microscopy in U2AF1 S34F mutant TF-1 cells; type: cell-based; details: treated for 24 hours prior to staining
# Description: Reagents and cells. U937 cells were grown in RPMI1640 supplemented with 10% FBS. TF-1 U2AF1 mutant and mock WT cells were cultured in RPMI1640 supplemented with 10% FBS and 2 ng/mL recombinant human GM-CSF. Cells were maintained at 37° C. under 5% CO2. Normal, heparinized BM aspirates were purchased from Lonza Walkersville or AllCells, LLC. […] J Clin Invest. 2013 123(11):4595-611). The IRAK4 inhibitor was acquired through material transfer agreement from Nimbus Discovery. NAC and DPI were purchased from Sigma-Aldrich. Active caspase-1 and caspase-3/7 were detected using FAM-FLICA® Caspase-1 and Caspase-3/7 activity kits, (ImmunoChemistry Technologies). NLRP1 antibodies were purchased from Santa Cruz Biotechnology, NLRP3 antibodies from Abcam, and β-catenin antibodies from BD Biosciences. Immunofluorescence confocal microscopy. MDS and normal donor BM-MNC and mouse BM cells were stained with 30× FAM-FLICA® Caspase-1 solution at a ratio of 1:30 for 2 hours at 37° C. Cells were washed and cytospins were generated using a 5 minutes centrifugation at 450 rpm. Slides were fixed at 37° C. for 10 minutes using BD Cytofix Fixation Buffer (BD Biosciences), and subsequently washed using PBS. […] Co-localization of a-caspase-1 with NLRP3 inflammasome complexes was assessed using a Leica TCS SP5 AOBS Laser Scanning Confocal microscope (Leica Microsystems). […]
# [2] = system: inflammasome; assay: ASC staining flow cytometry for inflammasome formation in SF3B1-K700E BM cells; type: cell-based, mouse; details: 24 hours treatment
# Description: ASC staining to detect inflammasome formation by flow cytometry. Staining was carried out as described ([…], et al. J Immunol. 2015 194(1):455-62). Briefly, cell pellets were resuspended in 1 mL of prewarmed BD Permeabilization Buffer III, and incubated on ice for 30 minutes. Cells were washed 2× with staining buffer. Following washing, cells were stained with rabbit-anti-ASC primary antibodies at a 1:1500 dilution and incubated for 90 minutes. Cells were washed, stained with secondary antibodies at a dilution of 1:1500, and incubated for 45 minutes. Cells were washed, and sample acquisitions were carried out using a BD LSR II flow cytometer and FACSDiva software.
# [3] = system: ROS; assay: ROS detection by flow cytometry in SF3B1-K700E BM cells; type: cell-based, mouse; details: NAC or DPI treatment
# Text: (§1) ROS detection. ROS were detected using CM-H2DCFDA and CellROX® Deep Red Reagent according to manufacturer's protocol (Life Technologies).
# [4] = system: β-catenin; assay: β-catenin confocal microscopy in SF3B1-K700E BM cells; type: cell-based, mouse; details: 24 hours treatment
# Description: (§2) Immunofluorescence confocal microscopy. MDS and normal donor BM-MNC and mouse BM cells were stained with 30× FAM-FLICA® Caspase-1 solution at a ratio of 1:30 for 2 hours at 37° C. Cells were washed and cytospins were generated using a 5 minutes centrifugation at 450 rpm. Slides were fixed at 37° C. for 10 minutes using BD Cytofix Fixation Buffer (BD Biosciences), and subsequently washed using PBS. Cells were permeabilized with 0.1% Triton X-100/2% BSA in PBS for 15 minutes at room temperature. After washing with PBS, cells were blocked using 2% BSA in PBS for 30 minutes at room temperature, and washed again. Cells were incubated with the appropriate primary antibody overnight (1:400 for NLRP3, 1:20 for β-catenin) at 4° C. The next day, cells were washed with PBS and incubated with the appropriate secondary antibodies (1:500) for 1 hour at room temperature. After washing, cells were covered with ProLong Gold Antifade Reagent with DAPI prior to the addition of a coverslip (Life Technologies). Co-localization of a-caspase-1 with NLRP3 inflammasome complexes was assessed using a Leica TCS SP5 AOBS Laser Scanning Confocal microscope (Leica Microsystems). Analysis of the inflammasome images was performed with Definiens Developer 2.0 (Definiens AG). The software was used to segment cells based on brightness and size thresholds, followed by a watershed segmentation algorithm. […]
# [5] = target: T1, NLRP3 inflammasome (Homo sapiens, UniProt Q96P20); assay: Confocal microscopy of a-caspase-1/NLRP3 inflammasome formation in U937 cells; type: cell-based; details: 5 μg/mL, 24 hours
# T1 construct: endogenous in cells; host or cells: U937 cells
# T1 sequence (Q96P20 whole entry): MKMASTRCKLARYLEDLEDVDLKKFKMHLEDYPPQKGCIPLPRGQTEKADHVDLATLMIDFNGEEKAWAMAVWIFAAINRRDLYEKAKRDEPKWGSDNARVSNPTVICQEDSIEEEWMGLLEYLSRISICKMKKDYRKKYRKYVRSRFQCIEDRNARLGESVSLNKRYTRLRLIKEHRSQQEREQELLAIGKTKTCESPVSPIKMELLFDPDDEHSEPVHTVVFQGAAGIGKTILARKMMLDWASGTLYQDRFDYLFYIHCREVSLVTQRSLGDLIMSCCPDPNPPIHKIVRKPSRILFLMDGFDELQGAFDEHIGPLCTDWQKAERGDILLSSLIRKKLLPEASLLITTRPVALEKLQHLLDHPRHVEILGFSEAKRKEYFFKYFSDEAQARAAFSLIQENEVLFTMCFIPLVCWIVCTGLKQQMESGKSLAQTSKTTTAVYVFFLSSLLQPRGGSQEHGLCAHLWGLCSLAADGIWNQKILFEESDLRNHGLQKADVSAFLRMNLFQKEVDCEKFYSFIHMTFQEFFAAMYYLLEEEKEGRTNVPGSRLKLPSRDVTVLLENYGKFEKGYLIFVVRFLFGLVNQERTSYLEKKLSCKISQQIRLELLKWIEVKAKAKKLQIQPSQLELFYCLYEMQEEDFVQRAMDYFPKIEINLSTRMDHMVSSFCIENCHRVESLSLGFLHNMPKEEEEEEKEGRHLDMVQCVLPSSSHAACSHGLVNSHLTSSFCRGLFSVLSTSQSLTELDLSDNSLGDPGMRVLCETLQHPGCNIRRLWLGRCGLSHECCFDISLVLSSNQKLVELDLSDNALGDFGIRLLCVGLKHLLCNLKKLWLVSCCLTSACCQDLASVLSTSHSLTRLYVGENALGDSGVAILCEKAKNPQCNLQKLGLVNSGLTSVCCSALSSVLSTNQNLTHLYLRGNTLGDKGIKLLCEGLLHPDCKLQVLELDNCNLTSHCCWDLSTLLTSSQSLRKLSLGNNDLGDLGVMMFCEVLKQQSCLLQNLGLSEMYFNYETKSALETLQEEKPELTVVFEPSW
# [6] = system: U937 cells; assay: S100A9 flow cytometry experiments in U937 cells (a-caspase-1/annexin-V); type: cell-based
# Description: S100A9 flow cytometry experiments in U937 cells. Monocytic U937 cells were treated with the indicated concentrations of rhS100A9 for 24 hours, or with 5 μg/mL rhS100A9 for the indicated time points. Subsequently, cells were stained with 30× FAM-FLICA® Caspase-1 solution at a ratio of 1:30 for 2 hours at 37° C. Cells were washed, resuspended in 1× binding buffer, and stained with Annexin-V:PE at a dilution of 1:30 for 15 minutes at room temperature. 1× binding buffer was added to a final volume of 350 μL. Sample acquisitions were carried out using a BD FACSCalibur flow cytometer (BD Biosciences). Data were analyzed using FlowJo 9.7.5 software.
# [7] = system: pyroptosis-associated genes; assay: qPCR of pyroptosis-associated genes in normal BM-MNC treated with rhS100A9; type: cell-based, human; details: normal BM-MNC (n=2), 1 μg/mL, 24 hours
# Description: Real-time quantitative PCR. RNA was isolated from BM-MNC using the RNeasy Mini Kit (Qiagen). cDNA was produced using the iScript cDNA Synthesis Kit (Bio-Rad). Sequences for primers can be found in Table 1. GAPDH mRNA was used for transcript normalization. cDNA was amplified using the iQ SYBR Green Supermix and the CFX96 Real-Time PCR Detection System (Bio-Rad). PCR conditions were as follows: 10 minutes at 95° C., followed by 40 cycles of amplification (15 seconds at 95° C. and 1 minute at 60° C.). Relative gene expression was calculated using the −2^ΔΔCt method.
# [8] = system: NLRP3 inflammasome; assay: Confocal microscopy of a-caspase-1/NLRP3 in normal BM-MNC treated with rhS100A9; type: cell-based, human; details: 5 μg/mL, 24 hours
# Description: (§3) Immunofluorescence confocal microscopy. MDS and normal donor BM-MNC and mouse BM cells were stained with 30× FAM-FLICA® Caspase-1 solution at a ratio of 1:30 for 2 hours at 37° C. Cells were washed and cytospins were generated using a 5 minutes centrifugation at 450 rpm. Slides were fixed at 37° C. for 10 minutes using BD Cytofix Fixation Buffer (BD Biosciences), and subsequently washed using PBS. Cells were permeabilized with 0.1% Triton X-100/2% BSA in PBS for 15 minutes at room temperature. After washing with PBS, cells were blocked using 2% BSA in PBS for 30 minutes at room temperature, and washed again. Cells were incubated with the appropriate primary antibody overnight (1:400 for NLRP3, 1:20 for β-catenin) at 4° C. The next day, cells were washed with PBS and incubated with the appropriate secondary antibodies (1:500) for 1 hour at room temperature. After washing, cells were covered with ProLong Gold Antifade Reagent with DAPI prior to the addition of a coverslip (Life Technologies). Co-localization of a-caspase-1 with NLRP3 inflammasome complexes was assessed using a Leica TCS SP5 AOBS Laser Scanning Confocal microscope (Leica Microsystems). Analysis of the inflammasome images was performed with Definiens Developer 2.0 (Definiens AG). The software was used to segment cells based on brightness and size thresholds, followed by a watershed segmentation algorithm. Intensity values and Pearson's correlation coefficient were extracted from the segmented cells. For β-catenin image analysis, confocal images were imported into Definiens Tissue Studio v3.0, 64 Dual in .tif format. Cells were separated from background using the RGB thresholds. Nuclei were identified by setting thresholds in the DAPI channel. Typical cells averaged 60 microns. The red intensity (β-catenin) in the nucleus and cytoplasm was established by setting thresholds to low, medium and high in the red channel on a scale of 0-255 in the red channel.
# [9] = system: U937 cells; assay: Pore formation, ethidium bromide uptake in U937 cells; type: cell-based; details: U937, 5 μg/mL rhS100A9, 12.5 μg/mL ethidium bromide
# [10] = system: NLRP3 inflammasome; assay: Confocal microscopy of a-caspase-1/NLRP3 in WT mouse BM cells treated with rhS100A9; type: cell-based; details: 5 μg/mL, 24 hours
# Description: as §3
# [11] = system: ROS; assay: ROS detection by flow cytometry in U937 cells; type: cell-based; details: U937, 5 μg/mL, 24 hours, compared to untreated cells
# Text: as §1
# [12] = system: U937 cells; assay: Comet assay of DNA damage in U937 cells; type: cell-based; details: U937, 5 μg/mL, 24 hours, compared to untreated cells
# Description: Comet assays. Monocytic U937 cells were treated with 5 μg/mL rhS100A9 for 24 hr. DNA damage was measured by single cell gel electrophoresis using alkaline CometAssay® according to manufacturer's protocol (Trevigen Inc.).
# [13] = system: β-catenin; assay: β-catenin confocal microscopy in U937 cells; type: cell-based; details: 5 μg/mL, 24 hours, compared to untreated cells
# [14] = system: β-catenin; assay: β-catenin confocal microscopy in normal BM-MNC; type: cell-based, human
# Description: as §2
# [15] = increasing concentrations, 24 hours
compound,measurement,setting,value
c1ccc2c(c1)[I+]c1ccccc1-2 [DPI],β-catenin activation in U2AF1-S34F mutant cells,[1],effectively reduced
same,inflammasome formation (ASC) in SF3B1-K700E mutant-expressing BM cells,[2],significantly reduced
same,ROS MFI in SF3B1-K700E BM cells,[3],extinguished below the level of WT controls
same,mean percentage of ROS+ cells in SF3B1-K700E BM cells,[3],extinguished below the level of WT controls
same,percentage of cells with elevated levels of nuclear β-catenin in SF3B1-K700E BM cells,[4],significantly reduced
"rhS100A9: recombinant human S100A9, alarmin / DAMP protein, TLR4 and CD33 ligand",levels of NLRP3 inflammasome complexes in U937,[5],markedly increased
same,activation of caspase-1 in U937 over time,[6]; 5 μg/mL,time-dependent increase
same,a-caspase-1 MFI in U937,[6]; [15],corresponding increase
same,fraction of pyroptotic cells in U937,[6]; [15],concentration-dependent increase
same,percentage of a-caspase-1+ cells in U937,[6]; [15],corresponding increase
same,expression of pyroptosis-associated genes,[7],significantly up-regulated
same,"NLRP3 levels, fold induction",[8],47.1 fold
same,"a-caspase-1 levels, fold induction",[8],2.5 fold
same,"formation of NLRP3 inflammasomes, fold induction",[8],2.9 fold
same,uptake of ethidium bromide,[9],rapid and substantial uptake
same,inflammasome complexes,[10],marked induction
same,MFI of NLRP3,[10]; versus controls,significantly increased
same,MFI of a-caspase-1,[10]; versus controls,significantly increased
same,fold increase in mean percentage of ROS-positive cells,[11],2.9 fold
same,fold increase in DNA damage,[12],4.1 fold
same,levels of nuclear (activated) β-catenin in U937,[13],marked increases
same,levels of nuclear β-catenin in normal BM-MNC,"[14]; 5 μg/mL, 24 hours, compared to controls",elevated levels
"CC(=O)N[C@@H](CS)C(=O)O [NAC, N-acetylcysteine]",β-catenin activation in U2AF1-S34F mutant cells,[1],effectively reduced
same,inflammasome formation (ASC) in SF3B1-K700E mutant-expressing BM cells,[2],significantly reduced
same,ROS MFI in SF3B1-K700E BM cells,[3],extinguished below the level of WT controls
same,mean percentage of ROS+ cells in SF3B1-K700E BM cells,[3],extinguished below the level of WT controls
same,percentage of cells with elevated levels of nuclear β-catenin in SF3B1-K700E BM cells,[4],significantly reduced
same,S100A9-triggered nuclear translocation of β-catenin in normal BM-MNC,[14]; S100A9 treatment of normal BM-MNC,abolished
